The results in this text go back to US9370507B2, “Pyridonyl guanidine F1F0-ATPase inhibitors and therapeutic uses thereof” (Lycera Corporation, priority 2010, dated 2016).

One test addresses T1, F1F0-ATPase (Bos taurus, UniProt P13621).
T1 construct: from tissue
Nature of the test: Inhibition of F1F0-ATPase activity in synthesizing ATP. In kind it is biochemical. The conditions noted are these: inhibition of ATP synthesis; read-out: ATP Syn IC50. On the procedure: (§1) The compounds listed in Table 4 were tested for activity against F1F0-ATPase by measuring the ability of the compounds to inhibit ATP synthesis. In addition, the compounds were assessed for cytotoxicity in Ramos cells Inhibition of F1F0-ATPase activity in synthesizing ATP and cytotoxicity in Ramos cells were measured according to the procedures described in K. M. Johnson et al. Chemistry & Biology 2005, 12, 485-496.

For another test, the system named is Ramos cells. Nature of the test: Cytotoxicity in Ramos cells. The format is cell-based. The conditions noted are these: Homo sapiens, read-out: Ramos Cell EC50. How it is done: as §1

SMILES strings stand for the structures.

For `O=C(N=C(Nc1cc(F)cc(Cl)c1)Nc1cccc(NS(=O)(=O)CC(F)(F)F)n1)c1ccc(Cl)cc1` [Compound A-135], on F1F0-ATPase, the IC50 was below 10 µM. For the same compound, the EC50 in the test with Ramos cells was below 10 µM.
On to `CC(C)(C)c1ccccc1N/C(=N/C(=O)c1ccc(F)c(F)c1)Nc1cccc(O)n1` [Compound A-13], for which the half-maximal inhibitory concentration (IC50) on F1F0-ATPase was below 10 µM. Moreover, in the test with Ramos cells, the 50% effective concentration (EC50) is below 10 µM.
Regarding `CC1(N/C(=N\C(=O)c2ccc(C(F)(F)F)cc2)Nc2cccc(O)n2)CC1` [Compound A-46], the IC50 at F1F0-ATPase was below 10 µM. Moreover, in the test with Ramos cells, the EC50 was below 10 µM.
In the case of `O=C(/N=C(/Nc1cccc(C(F)(F)F)c1)Nc1cccc(O)n1)c1cccc(C(F)(F)F)c1` [Compound A-17], the half-inhibitory concentration (IC50) at F1F0-ATPase is below 10 µM. The EC50 in the test on Ramos cells was below 10 µM.
With `O=C(/N=C(/Nc1cccc(Cl)c1)Nc1cccc(O)n1)c1cccc(C(F)(F)F)c1` [Compound A-20], the half-maximal inhibitory concentration (IC50) at F1F0-ATPase is below 10 µM. Besides, the EC50 in the test with Ramos cells is below 10 µM.
For `CS(=O)(=O)Nc1cccc(N/C(=N\C(=O)c2ccc(C(F)(F)F)cc2)NCC(F)(F)F)n1` [Compound A-122], the IC50 on F1F0-ATPase is below 10 µM. In addition, the 50% effective concentration (EC50) with Ramos cells is above 10 µM.
On to `CC(C)(C)CN/C(=N/C(=O)c1ccc(Cl)cc1)Nc1cccc(NS(=O)(=O)CC(F)(F)F)n1` [Compound A-134], for which the IC50 at F1F0-ATPase is below 10 µM. The EC50 with Ramos cells is below 10 µM.
Consider `CC(NC(=NC(=O)c1ccc(C(F)(F)F)cc1)Nc1cccc(O)n1)c1ccccc1Cl` (stereo not shown) [Compound A-67], for which the IC50 on F1F0-ATPase is below 10 µM. Besides, the concentration for a half-maximal effect (EC50) in the test with Ramos cells is below 10 µM.
For the compound `O=C(/N=C(\Nc1cccc(O)n1)NC1CCCC1)c1ccc(F)c(F)c1` [Compound A-95], the 50% inhibitory concentration (IC50) on F1F0-ATPase is below 10 µM. Further, the EC50 in the test on Ramos cells is below 10 µM.
Consider `O=C(/N=C(\Nc1cccc(O)n1)NC1CCCC1)c1ccc(C(F)(F)F)cc1` [Compound A-89], for which the IC50 at F1F0-ATPase is below 10 µM. Moreover, the EC50 in the test on Ramos cells is below 10 µM.
In the case of `O=C(/N=C(\Nc1cccc(O)n1)NC1CCCOC1)c1ccc(Cl)cc1` (stereo not shown) [Compound A-105], the concentration for half-maximal inhibition (IC50) on F1F0-ATPase was above 10 µM. The 50% effective concentration (EC50) in the test with Ramos cells is above 10 µM.
On to `O=C(/N=C(\Nc1cccc(O)n1)NC1CCCC1)c1ccc(Cl)cc1` [Compound A-101], for which the IC50 at F1F0-ATPase is below 10 µM. The EC50 in the test with Ramos cells was above 10 µM.
`O=C(/N=C(/NCc1ccccc1C(F)(F)F)Nc1cccc(O)n1)c1ccc(C(F)(F)F)cc1` [Compound A-32]: the concentration for half-maximal inhibition (IC50) at F1F0-ATPase is below 10 µM. In addition, the EC50 with Ramos cells was below 10 µM.
As to `CC(=O)N(Cc1ccc(F)c(Cl)c1)/C(=N/C(=O)c1ccc(C(F)(F)F)cc1)Nc1cccc(O)n1` [Compound A-65], the IC50 on F1F0-ATPase was below 10 µM. The EC50 in the test on Ramos cells is below 10 µM.
`CN(/C(=N\C(=O)c1ccc(F)c(F)c1)Nc1cccc(O)n1)c1ccc(F)c(Cl)c1` [Compound A-10]: at F1F0-ATPase, the IC50 was above 10 µM. Further, the half-maximal effective concentration (EC50) in the test with Ramos cells was above 10 µM.
In the case of `Nc1cccc(N/C(=N\C(=O)c2cccc(C(F)(F)F)c2)Nc2cccc(C(F)(F)F)c2)n1` [Compound A-118], on F1F0-ATPase, the 50% inhibitory concentration (IC50) is above 10 µM. Also, the EC50 in the test on Ramos cells is above 10 µM.
As to `CS(=O)(=O)Nc1cccc(N/C(=N\C(=O)c2ccc(Cl)c(F)c2)NCc2ccc(F)c(Cl)c2)n1` [Compound A-121], the half-maximal inhibitory concentration (IC50) on F1F0-ATPase is below 10 µM. The EC50 in the test on Ramos cells is below 10 µM.
Regarding `O=C(/N=C(/NCc1cccc(F)c1F)Nc1cccc(O)n1)c1ccc(C(F)(F)F)cc1` [Compound A-86], the IC50 on F1F0-ATPase is below 10 µM. The EC50 with Ramos cells was below 10 µM.
In the case of `O=C(/N=C(/NCc1c(F)cc(F)cc1F)Nc1cccc(O)n1)c1ccc(C(F)(F)F)cc1` [Compound A-38], the IC50 on F1F0-ATPase was below 10 µM. Besides, the half-maximal effective concentration (EC50) in the test on Ramos cells is below 10 µM.
As for `CC1CCC(N/C(=N/C(=O)c2ccc(C(F)(F)F)cc2)Nc2cccc(O)n2)CC1` (stereo not shown) [Compound A-29], on F1F0-ATPase, the concentration for half-maximal inhibition (IC50) was below 10 µM. Moreover, the concentration for a half-maximal effect (EC50) in the test on Ramos cells was below 10 µM.
As to `O=C(/N=C(/NCc1ccc(Cl)cc1F)Nc1cccc(NS(=O)(=O)CC(F)(F)F)n1)c1ccc(Cl)cc1` [Compound A-136], on F1F0-ATPase, the concentration for half-maximal inhibition (IC50) was below 10 µM. The EC50 in the test with Ramos cells is below 10 µM.
With `O=C(/N=C(/NCC(F)(F)F)Nc1cccc(NS(=O)(=O)CC(F)(F)F)n1)c1ccc(Cl)cc1` [Compound A-125], the IC50 at F1F0-ATPase is below 10 µM. Further, the EC50 in the test with Ramos cells is below 10 µM.
On to `O=C(/N=C(/NCc1ccc(Cl)cc1F)Nc1cccc(O)n1)c1ccc(Cl)cc1` [Compound A-84], for which, on F1F0-ATPase, the half-maximal inhibitory concentration (IC50) was below 10 µM. Further, the EC50 in the test on Ramos cells was above 10 µM.
For `O=C(/N=C(\Nc1cccc(O)n1)Nc1ccccc1C1CC1)c1ccc(C(F)(F)F)cc1` [Compound A-6] the same measures were below 10 µM and below 10 µM.
Consider `CC(NC(=NC(=O)c1ccc(C(F)(F)F)cc1)Nc1cccc(O)n1)c1cccc(Cl)c1` (stereo not shown) [Compound A-68], for which the IC50 on F1F0-ATPase is below 10 µM. Besides, the half-maximal effective concentration (EC50) in the test with Ramos cells is below 10 µM.
Take `CC(C)(C)N/C(=N\C(=O)c1ccc(Cl)c(F)c1)Nc1cccc(O)n1` [Compound A-44]: at F1F0-ATPase, the half-inhibitory concentration (IC50) is below 10 µM. Also, in the test on Ramos cells, the EC50 is below 10 µM.
With `O=C(/N=C(/NCc1ccccc1Cl)Nc1cccc(O)n1)c1ccc(F)c(F)c1` [Compound A-71], at F1F0-ATPase, the IC50 is below 10 µM. Also, in the test on Ramos cells, the EC50 was below 10 µM.
In the case of `O=C(/N=C(/NCc1ccc(F)c(Cl)c1)Nc1cccc(O)n1)c1ccc(Cl)cc1` [Compound A-82], the IC50 at F1F0-ATPase is below 10 µM. The half-maximal effective concentration (EC50) in the test on Ramos cells was below 10 µM.
As for `O=C(/N=C(\Nc1cccc(O)n1)Nc1ccc(F)cc1C1CC1)c1ccc(F)c(F)c1` [Compound A-11], the concentration for half-maximal inhibition (IC50) on F1F0-ATPase was below 10 µM. Further, in the test on Ramos cells, the EC50 is below 10 µM.
As for `CC1(N/C(=N/C(=O)c2ccc(Cl)cc2)Nc2cccc(O)n2)CCCC1` [Compound A-62], the 50% inhibitory concentration (IC50) at F1F0-ATPase was below 10 µM. The EC50 in the test with Ramos cells is below 10 µM.
`O=C(/N=C(/Nc1cccc(C2CC2)c1)Nc1cccc(O)n1)c1ccc(C(F)(F)F)cc1` [Compound A-26]: the half-maximal inhibitory concentration (IC50) on F1F0-ATPase was below 10 µM. For the same compound, the concentration for a half-maximal effect (EC50) with Ramos cells was below 10 µM.
As for `O=C(/N=C(/NCc1cccc(Cl)c1)Nc1cccc(O)n1)c1ccc(Cl)cc1` [Compound A-88], on F1F0-ATPase, the half-inhibitory concentration (IC50) is below 10 µM. Moreover, the EC50 in the test on Ramos cells is below 10 µM.
As to `O=C(/N=C(/Nc1cccc(Cl)c1)Nc1cccc(O)n1)c1cccc(Cl)c1` [Compound A-19], the half-maximal inhibitory concentration (IC50) at F1F0-ATPase was below 10 µM. Besides, the EC50 in the test on Ramos cells was below 10 µM.
Consider `O=C(/N=C(/NCc1ccc(Cl)cc1)Nc1cccc(O)n1)c1ccc(Cl)cc1` [Compound A-76], for which, at F1F0-ATPase, the IC50 was below 10 µM. Also, the EC50 in the test with Ramos cells is below 10 µM.
For the compound `COc1cccc(N/C(=N\C(=O)c2ccc(C(F)(F)F)cc2)NCc2ccc(Cl)c(F)c2)n1` [Compound A-66], the half-inhibitory concentration (IC50) on F1F0-ATPase was above 10 µM. In addition, the EC50 in the test with Ramos cells is above 10 µM.
Take `O=C(/N=C(\Nc1cccc(O)n1)NC1CCCOC1)c1ccc(C(F)(F)F)cc1` (stereo not shown) [Compound A-93]: the IC50 on F1F0-ATPase was below 10 µM. Also, the EC50 with Ramos cells is below 10 µM.
Turning to `COCC(C)N/C(=N/C(=O)c1ccc(C(F)(F)F)cc1)Nc1cccc(O)n1` (stereo not shown) [Compound A-94], the IC50 on F1F0-ATPase is below 10 µM. For the same compound, the EC50 with Ramos cells is above 10 µM.
For `O=C(/N=C(/Nc1cc(F)cc(Cl)c1)Nc1cccc(O)n1)c1ccc(Cl)c(F)c1` [Compound A-23] the same measures were below 10 µM and below 10 µM.
The corresponding values for `CS(=O)(=O)Nc1cccc(N/C(=N\C(=O)c2ccc(C(F)(F)F)cc2)NCc2ccccc2C(F)(F)F)n1` [Compound A-114] are below 10 µM and below 10 µM.
The corresponding values for `O=C(/N=C(/NCc1ccc(C(F)(F)F)cc1)Nc1cccc(O)n1)c1ccc(F)c(F)c1` [Compound A-35] are below 10 µM and below 10 µM.
`CC(C)N/C(=N/C(=O)c1ccc(Cl)cc1)Nc1cccc(O)n1` [Compound A-109]: the IC50 on F1F0-ATPase was below 10 µM. Moreover, the EC50 in the test on Ramos cells is above 10 µM.
The corresponding values for `O=C(/N=C(/NCc1ccc(Cl)c(F)c1)Nc1cccc(O)n1)c1ccc(Cl)cc1` [Compound A-83] are below 10 µM and below 10 µM.
For the compound `O=C(/N=C(/NCc1ccc(F)cc1)Nc1cccc(O)n1)c1ccc(C(F)(F)F)cc1` [Compound A-85], the IC50 at F1F0-ATPase was below 10 µM. Also, in the test with Ramos cells, the concentration for a half-maximal effect (EC50) is below 10 µM.
`CCC(C)(C)N/C(=N/C(=O)c1ccc(Cl)cc1)Nc1cccc(O)n1` [Compound A-102]: the concentration for half-maximal inhibition (IC50) on F1F0-ATPase was below 10 µM. Besides, in the test with Ramos cells, the EC50 was below 10 µM.

Broadly, the IC50 is the concentration at which inhibition is half-maximal. As usually defined, the EC50 is the concentration needed to bring the measured effect to its halfway point.
